# What was measured:
# [1] = molecular target: GABAA receptors comprising α4 and δ subunits (Homo sapiens, UniProt O14764+P28472+P48169); settings: Brown et al, British J. Pharmacol., 136, 965-74 (2002); cited from earlier work
# [2] = reversion of anhydrate to monohydrate under humidity; format: physicochemical; settings: 25° C.
# Method: (§1) (The anhydrate of form I reverts to the monohydrate at 25° C./70% RH, while the anhydrate of form II reverts to the monohydrate at 25° C./90% RH).
# [3] = relative thermodynamic stability of crystalline forms; format: physicochemical; settings: comparison of form II with form I of the same hydration state
# Method: as §1
# [4] = thermal decomposition studies; format: physicochemical; settings: based on thermal decomposition studies; monohydrate form II vs anhydrous form II
# GABAA receptors comprising α4 and δ subunits, sequence (P48169 36-554): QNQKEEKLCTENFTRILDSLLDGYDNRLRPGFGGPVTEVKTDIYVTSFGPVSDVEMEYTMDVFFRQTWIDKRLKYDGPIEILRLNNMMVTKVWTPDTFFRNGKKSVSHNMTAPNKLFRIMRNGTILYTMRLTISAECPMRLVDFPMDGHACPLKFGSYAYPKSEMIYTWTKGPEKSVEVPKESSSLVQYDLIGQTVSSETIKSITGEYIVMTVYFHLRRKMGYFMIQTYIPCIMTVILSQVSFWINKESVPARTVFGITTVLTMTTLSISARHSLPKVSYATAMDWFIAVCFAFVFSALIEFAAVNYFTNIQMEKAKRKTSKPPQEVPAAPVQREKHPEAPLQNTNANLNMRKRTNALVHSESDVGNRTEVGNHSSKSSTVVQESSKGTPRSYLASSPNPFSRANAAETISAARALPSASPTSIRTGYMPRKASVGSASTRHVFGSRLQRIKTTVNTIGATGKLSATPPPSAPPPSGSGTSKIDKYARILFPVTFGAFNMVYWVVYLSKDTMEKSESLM
# GABAA receptors comprising α4 and δ subunits, sequence (O14764 25-452): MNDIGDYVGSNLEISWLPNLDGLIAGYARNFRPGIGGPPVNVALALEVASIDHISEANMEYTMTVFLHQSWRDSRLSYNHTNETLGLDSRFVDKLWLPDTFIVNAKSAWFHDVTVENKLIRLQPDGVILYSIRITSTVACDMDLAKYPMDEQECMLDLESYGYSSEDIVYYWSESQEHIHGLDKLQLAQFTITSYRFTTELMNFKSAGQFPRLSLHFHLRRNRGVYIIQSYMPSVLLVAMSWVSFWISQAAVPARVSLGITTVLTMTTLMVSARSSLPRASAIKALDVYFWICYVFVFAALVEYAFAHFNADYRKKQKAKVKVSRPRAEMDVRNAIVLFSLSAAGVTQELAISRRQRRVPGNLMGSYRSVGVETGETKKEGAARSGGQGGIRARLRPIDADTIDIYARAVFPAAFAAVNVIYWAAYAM
# GABAA receptors comprising α4 and δ subunits, sequence (P28472 26-473): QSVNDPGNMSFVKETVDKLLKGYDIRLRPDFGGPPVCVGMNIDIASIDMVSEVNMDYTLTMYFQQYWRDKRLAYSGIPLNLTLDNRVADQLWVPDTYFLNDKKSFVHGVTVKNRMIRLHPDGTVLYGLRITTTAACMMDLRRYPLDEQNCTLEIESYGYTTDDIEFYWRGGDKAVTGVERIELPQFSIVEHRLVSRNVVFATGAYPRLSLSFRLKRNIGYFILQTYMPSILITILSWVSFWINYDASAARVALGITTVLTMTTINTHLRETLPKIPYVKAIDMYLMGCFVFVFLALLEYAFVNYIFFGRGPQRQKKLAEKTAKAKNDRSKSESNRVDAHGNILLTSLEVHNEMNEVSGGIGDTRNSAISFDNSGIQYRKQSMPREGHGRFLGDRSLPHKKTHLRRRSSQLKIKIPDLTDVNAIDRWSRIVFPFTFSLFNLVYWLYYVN
smiles,measurement,setting,value
"Oc1noc2c1CCNC2 [gaboxadol, 4,5,6,7-tetrahydroisoxazolo[5,4-c]pyridin-3-ol]",agonist potency,[1],particularly potent agonist
"Oc1noc2c1CCNC2 [anhydrate of form II, 4,5,6,7-tetrahydroisoxazolo[5,4-c]pyridin-3-ol]",relative humidity at which the anhydrate reverts to the monohydrate,[2],90 % RH
same,thermodynamic stability relative to the other polymorph,[3]; listed as gaboxadol anhydrate of form II,more stable than the anhydrate of form I
"Oc1noc2c1CCNC2 [Gaboxadol monohydrate of form II, 4,5,6,7-tetrahydroisoxazolo[5,4-c]pyridin-3-ol]",thermal profile,[4],safer thermal profile than the anhydrous form II
same,thermodynamic stability relative to the other polymorph,[3],thermodynamically more stable than the monohydrate of form I
"Oc1noc2c1CCNC2 [anhydrate of form I, 4,5,6,7-tetrahydroisoxazolo[5,4-c]pyridin-3-ol]",relative humidity at which the anhydrate reverts to the monohydrate,[2],70 % RH

# Reference: patent US8236958B2, “Polymorphic forms of a GABAA agonist” (H. Lundbeck A/S, priority 2004, dated 2012)
